Assay results reported in patent US11452674B2, “Non-solvent dental adhesive composition” (KURARAY NORITAKE DENTAL INC., priority 2017, dated 2022).
≈ marks a conversion by molar mass, not a printed value.

Assay: Solubility in water at 25° C.
Conditions: 25° C.

Row | Solubility in water at 25° C. [mg/mL] | Structure (SMILES)
1 | 60 | Cc1cc(C)c(C(=O)P(=O)(O)C(=O)c2c(C)cc(C)cc2C)c(C)c1 [BAPO-ONa, sodium bis(2,4,6-trimethylbenzoyl)phosphine oxide]
2 | 1.7 (≈ 10.2 mM) | CC12CCC(C(=O)C1=O)C2(C)C (stereo not drawn) [CQ, d1-camphorquinone]

Row | Structure (SMILES) | Solubility in water at 25° C. [mg/mL]
3 | Cc1cc(C)c(C(=O)P(=O)(c2ccccc2)c2ccccc2)c(C)c1 [TMDPO, 2,4,6-trimethylbenzoykliphenylphosphine oxide, reference compound] | < 1

Same assay, conditions: 25 °C

Row | Structure (SMILES) | solubility [mg/mL]
4 | Cc1cc(C)c(C(=O)P(=O)(O)c2ccccc2)c(C)c1 [Li-TPO, lithium (2,4,6-trimethylbenzoyl)phenylphosphine oxide] | 45 (≈ 156 mM)

Same assay, conditions: 25 °C, Solubility in water at 25° C.

Row | solubility [mg/mL] | Structure (SMILES)
5 | < 1 | Cc1cc(C)c(C(=O)P(=O)(C(=O)c2c(C)cc(C)cc2C)c2ccccc2)c(C)c1 [BAPO, bis(2,4,6-trimethylbenzoyl)phenylphosphine oxide, reference compound]
6 | < 10 | COCCOCCOC(=O)Nc1c(C)cc(C)c(C(=O)P(=O)(c2ccccc2)c2ccccc2)c1C [TMDPO-A1, reference compound]
7 | 52 (≈ 145 mM) | Cc1cc(C)c(C(=O)P(=O)(O)C(=O)c2c(C)cc(C)cc2C)c(C)c1 [BAPO-OLi, lithium bis(2,4,6-trimethylbenzoyl)phosphine oxide]

More lines, now with the values behind:

Row | Structure (SMILES) | solubility [mg/mL]
8 | Cc1cc(C)c(C(=O)P(=O)(O)c2ccccc2)c(C)c1 [Na-TPO] | 28 (≈ 97.1 mM)
9 | COCCOCCOCC(=O)Nc1c(C)cc(C)c(C(=O)P(=O)(C(=O)c2c(C)cc(C)c(NC(=O)COCCOCCOC)c2C)c2ccccc2)c1C [BAPO-A1, reference compound] | < 10
